Measured values taken from ChEMBL document CHEMBL6087416, “Discovery of novel fused-heterocycle-bearing diarypyrimidine derivatives as HIV-1 potent NNRTIs targeting tolerant region I for enhanced antiviral activity and resistance profile” (Eur J Med Chem, 2025).

Key:
[1] = system: Human immunodeficiency virus 2; experiment: Antiviral activity against HIV-2 ROD infected in human MT4 cells assessed as protection against virus-induced cytopathic effect incubated for 5 days by MTT assay; format: functional, organism-based; conditions: Human immunodeficiency virus 2, ROD, MT4, 120 h
[2] = system: Human immunodeficiency virus 1; format: functional, organism-based; conditions: Human immunodeficiency virus 1, MT4, 120 h
[3] = system: Human immunodeficiency virus 1; format: functional, organism-based; conditions: Human immunodeficiency virus 1, MT4, 120 h; remark: listed apart in the source
[4] = system: Human immunodeficiency virus 1; experiment: Antiviral activity against NNRTI-resistant HIV-1 harboring RT E138K mutant infected in human MT4 cells assessed as protection against virus-induced cytopathic effect incubated for 5 days by MTT assay; format: functional, organism-based; conditions: Human immunodeficiency virus 1, MT4, 120 h
[5] = system: Human immunodeficiency virus 1; format: functional, organism-based; conditions: Human immunodeficiency virus 1, MT4, 120 h; remark: listed apart in the source
[6] = system: Human immunodeficiency virus 1; experiment: microbe, parasite or virus in culture; conditions: Human immunodeficiency virus 1, IIIB, MT4, 120 h
Description: Antiviral activity against wild type HIV-1 IIIB infected in human MT4 cells assessed as protection against virus-induced cytopathic effect incubated for 5 days by MTT assay

[7] = system: Human immunodeficiency virus 1; experiment: Antiviral activity against NNRTI-resistant HIV-1 harboring RT L100I mutant infected in human MT4 cells assessed as protection against virus-induced cytopathic effect incubated for 5 days by MTT assay; format: functional, organism-based; conditions: Human immunodeficiency virus 1, MT4, 120 h
[8] = system: Human immunodeficiency virus 1; experiment: Antiviral activity against NNRTI-resistant HIV-1 harboring RT K103N mutant infected in human MT4 cells assessed as protection against virus-induced cytopathic effect incubated for 5 days by MTT assay; format: functional, organism-based; conditions: Human immunodeficiency virus 1, MT4, 120 h
[9] = in vitro; conditions: human, MT4 cells
Description: Selectivity index, ratio of CC50 for human MT4 cells to EC50 for wild type HIV-1 IIIB infected in human MT4 cells

[10] = biological target: Human immunodeficiency virus type 1 reverse transcriptase (Human immunodeficiency virus 1, UniProt Q72547); experiment: Inhibition of wild type HIV-1 Reverse transcriptase incubated for 1 hrs by ELISA analysis
[11] = Cytotoxicity against human MT4 cells assessed as reduction in cell viability measured after 5 days by MTT assay; format: toxicity, cell-based; conditions: time 5 day
[12] = in vitro; conditions: human, MT4 cells; remark: listed apart in the source
Description: Selectivity index, ratio of CC50 for human MT4 cells to EC50 for HIV-1 RES056 harboring RT K103N/Y181C mutant infected in human MT4 cells

[13] = system: Human immunodeficiency virus 1; format: functional, organism-based; conditions: Human immunodeficiency virus 1, RES056, MT4, 120 h
[14] = in vitro; conditions: human, MT4 cells; remark: listed apart in the source
Description: Selectivity index, ratio of CC50 for human MT4 cells to EC50 for HIV-2 ROD infected in human MT4 cells

Row | SMILES | EC50 [1] [nM] | EC50 [2] [nM] | EC50 [3] [nM] | EC50 [4] [nM] | EC50 [5] [nM] | EC50 [6] [nM] | EC50 [7] [nM] | EC50 [8] [nM] | selectivity ratio [9] | IC50 [10] [nM] | CC50 at 120 h [11] [nM] | selectivity ratio [12] | EC50 [13] [nM] | selectivity ratio [14]
1 | Cc1cc(/C=C/C#N)cc(C)c1Oc1ccnc(Nc2ccc3c(c2)COC3)n1 | > 14000 | 700 | 99 | 39 | 4900 | 2 | 47 | 6 | 7440 | 29 | 14000 | 573 | 1080 | 
2 | Cc1cc(/C=C/C#N)cc(C)c1Oc1ccnc(Nc2ccc3c(c2)OCO3)n1 | 8200 |  |  |  |  | 8 |  |  | 5260 | 26 | 40800 | 18 | 2220 | 4.98
3 | Cc1cc(/C=C/C#N)cc(C)c1Oc1ccnc(Nc2ccc3nccn3c2)n1 | > 28700 | 960 | 210 | 58 | 3910 | 2 | 64 | 8 | 14600 | 29 | 28700 | 20 | 1450 | 
4 | Cc1cc(/C=C/C#N)cc(C)c1Oc1ccnc(Nc2ccc3occc3c2)n1 | 45500 |  |  |  |  | 7 |  |  | 31100 | 55 | 216000 | 25 | 8590 | 4.74
5 | Cc1cc(/C=C/C#N)cc(C)c1Oc1ccnc(Nc2ccc3c(cnn3C)c2)n1 | > 50400 | > 50400 | 180 | 54 | > 50400 | 3 | 92 | 18 | > 18200 | 45 | > 50400 |  | > 50400 | 
6 | Cc1cc(C#N)cc(C)c1Oc1nc(Nc2ccc(C#N)cc2)nc(N)c1Br [ETRAVIRINE] | > 4590 | 17 |  |  | 31 |  |  |  |  |  | > 4590 |  | 32 | 
7 | Cc1cc(/C=C/C#N)cc(C)c1Oc1ccnc(Nc2ccc3cnsc3c2)n1 | > 10100 | 500 | 48 | 14 | 990 | 2 | 14 | 4 | 4140 | 19 | 10100 | 22 | 450 | 
8 | Cc1cc(/C=C/C#N)cc(C)c1Oc1ccnc(Nc2ccc3c(c2)C(=O)NCC3)n1 | > 3190 | > 3190 | 44 | 21 | > 3190 | 3 | 14 | 11 | 1220 | 46 | 3190 | 2 | 1340 | 
9 | Cc1cc(/C=C/C#N)cc(C)c1Oc1ccnc(Nc2ccc3c(c2)NC(=O)C3)n1 | > 50300 | 14400 | 72 | 46 | > 50300 | 2 | 54 | 4 | > 27600 | 53 | > 50300 | > 1 | 33700 | 
10 | Cc1cc(/C=C/C#N)cc(C)c1Oc1ccnc(Nc2ccc3c(c2)C(=O)N(C)C3=O)n1 | 165000 |  |  |  |  | 6 |  |  | > 52500 | 54 | > 294000 | > 63 | 4670 | > 1.78
11 | O=C1Nc2ccc(Cl)cc2[C@@](C#CC2CC2)(C(F)(F)F)O1 [EFAVIRENZ] | > 6340 |  | 9 | 9 |  |  |  |  |  |  | > 6340 |  |  | 
12 | Cc1ccnc2c1NC(=O)c1cccnc1N2C1CC1 [NEVIRAPINE] | > 9510 | > 9510 | 5830 |  | > 9510 | 130 |  | 5220 |  |  | > 9510 |  | > 9510 | 
13 | Cc1cc(/C=C/C#N)cc(C)c1Oc1ccnc(Nc2ccc(N3CCN(S(C)(=O)=O)CC3)c(C#N)c2)n1 | > 10200 | 10 | 6 | 6 | 740 | 1 | 4 | 2 | 7170 |  | 10200 | 110 | 93 | 
14 | Cn1c(Cn2ccc(C(F)(F)F)c(Oc3cc(Cl)cc(C#N)c3)c2=O)n[nH]c1=O [DORAVIRINE] | > 47000 | 22100 | 17 | 19 | 1710 | 7 | 8 | 10 | > 6760 | 30 | > 47000 | > 931 | 50 | 
15 | Cc1cc(/C=C/C#N)cc(C)c1Oc1ccnc(Nc2ccc3scnc3c2)n1 | 7040 | 1230 | 68 | 17 | 1370 | 2 | 29 | 6 | 26700 | 43 | 50200 | 506 | 950 | 7.13
16 | Cc1cc(/C=C/C#N)cc(C)c1Oc1ccnc(Nc2ccc3nsnc3c2)n1 | 1260 |  |  |  |  | 7 |  |  | 2850 | 37 | 20600 | 37 | 560 | 16.4
17 | Cc1cn([C@H]2C[C@H](N=[N+]=[N-])[C@@H](CO)O2)c(=O)[nH]c1=O [ZIDOVUDINE] | 39 |  | 41 | 47 | 40 | 40 | 14 | 36 | > 186 |  | > 7480 | > 215 | 35 | > 192
